{"source": "patent US6841172B1", "about": "“Method for iron delivery to a patient by transfer from dialysate” (HemoCleanse, Inc., priority 1996, dated 2005)", "key": {"[1]": {"experiment": "Transfer of ferrous gluconate from dialysate into blood by hemodialysis through a PAN membrane dialyzer", "format": "in vitro ADME, bovine", "experimental": "A two liter volume of bovine blood (hematocrit adjusted from 49 to 40 with saline) which had been stored with heparin anticoagulation for 24 hours was dialyzed using a PAN membrane dialyzer. The volume was maintained at 2 liters throughout the experiment by adding saline.\nA sample of the blood was taken prior to dialysis of the blood and tested for iron content. The iron content of the pre-dialysis blood was 110 μg/dl and the transferrin iron binding capacity was 234 μg/dl. Dialysis was then started using the following equipment and conditions:\nThe circuit was primed with dialysate, prepared as described above, pumps were adjusted for proper flow, and then the blood side was drained of dialysate by pulling the Blood In tube out of the dialysis bath and allowing air to fill this side.\nAssays were performed to determine plasma iron concentrations at 0, 5, 10, 20 and 30 minutes. […] This transfer indicates an avidity of plasma for the iron complex, even higher than the iron binding capacity of transferrin."}, "[2]": {"tested_on": "red blood cells", "experiment": "Monitoring of hemolysis in experimental dialysis (plasma absorbance at 420 and 585 nm)", "parameters": "species or system bovine", "conditions": "compared with similar experiments without iron in the dialysate", "from_the_text": "To determine whether the method of Example 1 would cause hemolysis (lysis of red blood cells with the liberation of hemoglobin), absorbance data at 420 and 585 nm was collected for the plasma at various stages of the experiment described in Example 1."}}, "data": [{"substance": "ferrous gluconate", "values": [{"measurement": "plasma iron level", "setting": "[1]; after 30 minutes of dialysis, dialysate iron 125 μg/dl, pre-dialysis blood iron 110 μg/dl, transferrin iron binding capacity 234 μg/dl", "value": "~500", "unit": "µg/dL"}, {"measurement": "percent saturation of transferrin", "setting": "[1]; after only a few minutes of hemodialysis, dialysate iron 125 μg/dl", "value": 100, "unit": "%"}, {"measurement": "iron transferred per dialysis treatment", "setting": "[1]; dialysate ferrous gluconate increased to 4 mg/dl", "value": 15, "unit": "mg"}, {"measurement": "iron transferred to the plasma", "setting": "[1]; if the initial rate of iron transfer is continued for 180 minutes, dialysate 1 mg/dl ferrous gluconate", "value": "approximately 4 mg"}, {"measurement": "level of hemolysis during dialysis", "setting": "[2]", "value": "not higher than that of similar experiments conducted without iron in the dialysate"}]}]}
